Measured values taken from patent US20120316105A1, “Polymyxin Derivates Useful As Antibacterial Agents” (priority 2011, published 2012).
Bridge positions count the residues as written; N and C are the ends. Square brackets hold non-standard residues; d marks the D form. Peptide text beside a SMILES is read from it. * marks the point of attachment. X17 = N#Cc1ccc(-c2cccc(C(=O)*)c2)cc1; X2 = N#Cc1ccc(-c2cc(C(=O)*)ccn2)cc1F; X3 = O=C(c1ccnc(-c2cccc(Cl)c2)c1)*; X16 = O=C(c1ccc(-c2ccccc2)nc1)*; Dab = NCC[C@H](N)C(=O)O; Dap = NC[C@H](N)C(=O)O

Assays:
[1] = system: PA-1646, polymyxin-resistant clinical isolate of Pseudomonas aeruginosa; type: cell-based; conditions: PA-1646, polymyxin-resistant clinical isolate of
Description: (§1) Minimum bactericidal concentration (MBC, mg/L), minimum inhibitory concentration (MIC, mg/L), and human renal proximal tubule epithelial cell line cytotoxicity concentration 50% (hRPTEC, TC50, micromolar) for compounds of Formula I are listed in Table 2. The compounds of Formula I were tested as the corresponding trifluoroacetate salt except for Example 1 which was tested as the sulfate salt. For Table 2 below: PMB=polymyxin B as the sulfate salt (Bedford Laboratories, pharmaceutical grade); PMB1=polymyxin B1 as the trifluoroacetate salt; Nona=polymyxin B nonapeptide as the trifluoroacetate salt. PMB1 and Nona were prepared using the solid phase methodology described in the experimental section herein.
(§2) The in vitro antibacterial activity of compounds of Formula I was evaluated by MIC testing according to Clinical and Laboratory Standards Institute (CLSI). See: Clinical and Laboratory Standards Institute. Methods for Dilution Antimicrobial Susceptibility Tests for Bacteria that Grow Aerobically; Approved Standard-Eighth Edition. CLSI document M7-A8 [ISBN 1-56238-689-1]. Clinical and Laboratory Standards Institute, 940 West Valley Road, Suite 1400, Wayne, Pa. 19087-1898 USA, 2006; also Clinical and Laboratory Standards Institute. Performance Standards for Antimicrobial Susceptibility Testing; Twentieth Informational Supplement. CLSI document M100-S20 [ISBN 1-56238-716-2]. Clinical and Laboratory Standards Institute. Methods for Determining Bactericidal Activity of Antimicrobial Agents; Approved Guideline. CLSI document M26-A (ISBN 1-56238-384-1). CLSI, 940 West Valley Road, Suite 1400, Wayne, Pa. 19087-1898 USA, 1999.
PA-1646 is a polymyxin-resistant clinical isolate of Pseudomonas aeruginosa obtained from JMI labs (www.jmilabs.com);

[2] = system: AB-1649, polymyxin-resistant clinical isolate of Acinetobacter baumannii; type: cell-based; conditions: AB-1649, polymyxin-resistant clinical isolate of
Description: as §1, §2
(§3) The MIC determination is a standard laboratory method for evaluating the antibacterial activity of a compound. The MIC represents the lowest drug concentration that inhibits visible growth of bacteria following overnight incubation. […] Typically, the drug concentration range is broken down into 2-fold increments (e.g. 0.06 mg/L, 0.12 mg/L, 0.25 mg/L, 0.50 mg/L, 1.0 mg/L, etc.) and the various drug concentrations are all individually incubated overnight with approximately the same number of bacteria. The MIC is then determined by visually inspecting the drug effect at each concentration, and identifying the lowest drug concentration that has inhibited bacterial growth as compared to the drug free control. Typically, bacteria continue to grow at drug concentrations lower than the MIC and don't grow at concentrations at and above the MIC.
(§4) The MIC values described in Table 2 below were derived from assays wherein each test compound was evaluated in duplicate. In cases where the duplicate values varied by 0-2-fold, the lower of the two values was reported below. Generally speaking, if the duplicate values varied by more than 2-fold, the assay was considered non-valid and was repeated until the variation between duplicate runs was ≦2-fold. In line with the CLSI guidelines referred to above, both control organisms and reference compounds were utilized in each MIC assay to provide proper quality control. MIC values generated with these control organisms and reference compounds were required to fall within a defined range for the assay to be considered valid and be included herein. Those skilled in the art will recognize that MIC values can and do vary from experiment to experiment. Generally speaking, it should be recognized that MIC values often vary +/−2-fold from experiment to experiment. While a single MIC is reported for each compound and each microorganism, the reader should not conclude that each compound was only tested once. Several of the compounds were subjected to multiple tests. The data reported in Table 2 is reflective of the compounds relative activity and different MICs may have been generated on these occasions in line with the guidelines described above.
(§5) The following bacterial strains were used in these MIC determinations: […]

[3] = system: PA-1646, polymyxin-resistant clinical isolate of Pseudomonas aeruginosa; type: cell-based; conditions: PA-1646, polymyxin-resistant clinical isolate of; remark: listed apart in the source
Description: as §1, §2, §3, §4, §5

[4] = system: AB-3167, clinical isolate of Acinetobacter baumannii; type: cell-based; conditions: AB-3167, clinical isolate of
Description: as §1, §2, §3, §4, §5

[5] = system: Pseudomonas aeruginosa strain PA01; type: cell-based; conditions: strain
Description: as §1, §2, §3, §4, §5

[6] = system: EC-1, mouse virulent strain of Escherichia coli; type: cell-based; conditions: E. coli EC-1; overnight incubation, lower of duplicate values; trifluoroacetate salt (Example 1 and PMB sulfate)
Description: as §1, §2, §3, §4
The following bacterial strains were used in these MIC determinations:
EC-1 is a mouse virulent strain of Escherichia coli.

[7] = system: AB-1649, polymyxin-resistant clinical isolate of Acinetobacter baumannii; type: cell-based; conditions: AB-1649, polymyxin-resistant clinical isolate of; remark: listed apart in the source
Description: as §1, §2
AB-1649 is a polymyxin-resistant clinical isolate of Acinetobacter baumannii obtained from JMI labs (www.jmilabs.com);

[8] = Cytotoxicity assay (LDH release), hRPTEC; type: cell-based, human; conditions: human
Description: as §1
Human Renal Proximal Tubule Epithelial cells (hRPTEC) were obtained from Lonza (Walkersville, Md., USA) and cultured in REGM (Renal Epithelial Cell Basal Medium supplemented with human epithelial growth factor, hydrocortisone, epinephrine, insulin, triiodothyronine, transferrin, gentamycin/amphotericin-B, and fetal bovine serum). The hRPTEC cells were seeded into 96-well plates and incubated at 37° C. in 5% CO2. Following a growth period of 72 hours, cells were treated with compounds at 100, 67, 44, 30, 20 and 13 micromolar for 24 hours at 37° C. in 5% CO2. The cell supernatant was then harvested for determination of LDH (lactate dehydrogenase) production. The Cytotoxicity Detection Kit from Roche was used for the measurement of LDH activity released from damaged cells. The Toxic Concentration 50% (TC50, micromolar) values were determined for each compound and compared to the control compounds (polymyxin B was used as a positive control and polymyxin B nonapepetide was used as negative control).

| Structure (SMILES) | PA-1646 MBC [1] | AB-1649 MIC [2] | PA-1646 MIC [3] | AB-3167 MIC [4] | PA01 MIC [5] | EC-1 MIC [6] | AB-1649 MBC [7] | CC50 at 24 h [8] |
| --- | --- | --- | --- | --- | --- | --- | --- | --- |
| CC(C)C[C@@H]1NC(=O)[C@@H](Cc2ccccc2)NC(=O)[C@H](CCN)NC(=O)[C@@H](NC(=O)[C@H](CN)NC(=O)[C@@H](NC(=O)[C@H](CCN)NC(=O)c2ccnc(-c3ccc(C#N)c(F)c3)c2)[C@@H](C)O)CCNC(=O)[C@H]([C@@H](C)O)NC(=O)[C@H](CCN)NC(=O)[C@H](CCN)NC1=O [Example 31] (X2-[Dab]T[Dap][Dab][Dab][dF]L[Dab][Dab]T; lactam 4-C) | 8 µg/mL | 4 µg/mL | 4 µg/mL | 0.5 µg/mL | 1 µg/mL | 0.5 µg/mL | 16 µg/mL | 55 µM |
| CC(C)C[C@@H]1NC(=O)[C@@H](Cc2ccccc2)NC(=O)[C@H](CCN)NC(=O)[C@@H](NC(=O)[C@H](CN)NC(=O)[C@@H](NC(=O)[C@H](CCN)NC(=O)c2ccnc(-c3cccc(Cl)c3)c2)[C@@H](C)O)CCNC(=O)[C@H]([C@@H](C)O)NC(=O)[C@H](CCN)NC(=O)[C@H](CCN)NC1=O [Example 3] (X3-[Dab]T[Dap][Dab][Dab][dF]L[Dab][Dab]T; lactam 4-C) | 1 µg/mL | 0.5 µg/mL | 1 µg/mL | 0.25 µg/mL | 0.5 µg/mL | 0.125 µg/mL | 0.5 µg/mL | 34 µM |
| CC(C)C[C@@H]1NC(=O)[C@@H](Cc2ccccc2)NC(=O)[C@H](CCN)NC(=O)[C@@H](NC(=O)[C@H](CN)NC(=O)[C@@H](NC(=O)[C@H](CCN)NC(=O)c2ccc(-c3ccccc3)nc2)[C@@H](C)O)CCNC(=O)[C@H]([C@@H](C)O)NC(=O)[C@H](CCN)NC(=O)[C@H](CCN)NC1=O [Example 27] (X16-[Dab]T[Dap][Dab][Dab][dF]L[Dab][Dab]T; lactam 4-C) | 4 µg/mL | 4 µg/mL | 2 µg/mL | 0.25 µg/mL | 0.5 µg/mL | 0.125 µg/mL | 4 µg/mL | 73 µM |
| CC(C)C[C@@H]1NC(=O)[C@@H](Cc2ccccc2)NC(=O)[C@H](CCN)NC(=O)[C@@H](NC(=O)[C@H](CN)NC(=O)[C@@H](NC(=O)[C@H](CCN)NC(=O)c2cccc(-c3ccc(C#N)cc3)c2)[C@@H](C)O)CCNC(=O)[C@H]([C@@H](C)O)NC(=O)[C@H](CCN)NC(=O)[C@H](CCN)NC1=O [Example 32] (X17-[Dab]T[Dap][Dab][Dab][dF]L[Dab][Dab]T; lactam 4-C) | 4 µg/mL | 4 µg/mL | 2 µg/mL | 0.5 µg/mL | 0.5 µg/mL | 0.25 µg/mL | 4 µg/mL | 33 µM |
